Marks after values point to notes of the source that are not given here. A value given as a limit tells only on which side of the number the result lay.

Series [1] relates to root-knot nematodes (Meloidogyne spp.). In words: nematocidal activity on hatched root-knot nematodes in Petri dish. Particulars: 15 nematodes.
Experimental: The tomato roots infected with root-knot nematodes were washed with running water and were then cut to a size of about 1 cm, after which 50 g of the cut roots were placed in a 500 ml round-bottom flask containing 200 ml of 0.5% sodium hypochloride (NaOCl), stopped with a rubber stopper, and shaken vigorously for 3 min to sterilize the roots and at the same time burst the egg bag. Thereafter, the solution was passed through a sieve in which 200 mesh was superimposed on 500 mesh, and washed with distilled water, so the eggs of the root-knot nematodes from which the NaOCl solution was removed were recovered.
Next, the eggs of the root-knot nematodes thus recovered were surface-sterilized with 0.5% NaOCl for 10 min, washed thoroughly with sterile distilled water, placed in a phosphate buffer (1%) containing sterilized normal saline, and hatched in an incubator at 25° C.
Thereafter, each mixed solution was diluted to 2000 ppm, 2 to 3 ml thereof was poured into a Petri dish, after which 15 hatched root-knot nematodes were placed in the Petri dish, and nematocidal activity was measured and the results thereof are shown in Table 1 below.
The number of root-knot nematodes used for the experiment on the number of killed root-knot nematodes was 15 at each dilution factor.
Series [2] concerns Ae. aegypti, Culex species mosquitoes, Anopheles species mosquitoes. In words: mosquitos and midge adult activity. It counts as in vivo. Particulars: used at 500 to 8,000 ppm.
For series [3] the following is noted: cited from earlier work.
The next series deals with tomato seedlings. Briefly: phytotoxicity of geraniol, drenching treatment of potted tomato seedlings. Type of series: in vivo. Particulars: 1 week after treatment; for Extent of phytotoxicity (0-5) / Phytotoxicity symptom: 50 ml drench, tomato. From the text:
Sterilized soil was uniformly mixed, 300 g thereof was then placed in each pot, and tomato seedlings not infected with root-knot nematodes were transplanted thereto.

In series [4] the test system is root-knot nematodes (Meloidogyne spp.). In words: nematocidal activity assessment of plant-derived materials in development. The settings on record: geraniol used at 500 to 4,000 ppm.
The test system of the next series is multiple insects. Briefly: insecticidal activity on multiple insects (oxymatrine). The settings on record: used at 500 to 6,000 ppm. It counts as in vivo.
For another series, the system named is Black Sigatoka. In words: field trials against black Sigatoka in bananas. The settings on record: applied as tank mixes with tea tree oil.

Experimental for Black Sigatoka: Tea tree oil was used in disclosed experiments and trials as an 54 mulsifiable concentrated formulation. For field trials in bananas, tea tree oil was applied similarly to conventional synthetic fungicides, with mineral oil, surfactants, and/or just water. The following fungicides, registered for use against black sigatoka in bananas, were tested for comparison: azoxystrobin (Bankit 25 SC), trifloxystrobin (Flint, Tega 50 WG), difenoconazole (Score, Sico 25 EC), mancozeb (43 SC Duwest 80 WP), flutriafol (Impact, 125 SC) and tridemorph (Calixin 86 OL).

Regarding `C/C=C(\C)C(=O)O[C@H]1C[C@@H](OC(C)=O)[C@@]2(C(=O)OC)CO[C@H]3[C@@H](O)[C@@](C)([C@]45O[C@@]4(C)[C@H]4C[C@@H]5O[C@@H]5OC=C[C@@]54O)[C@H]4[C@]1(CO[C@]4(O)C(=O)OC)[C@@H]32` [Azadirachtin, azadirachtin], the “number of killed root-knot nematodes” value is 7 in series [1] (2000 ppm, 1 day); 8 in series [1] (2000 ppm, 2 days); 10 in series [1] (2000 ppm, 3 days).

`CC(C)=CCC/C(C)=C/CO` [Geraniol, 3,7-dimethyl-2,6-octadien-1-ol]: the “number of killed root-knot nematodes” value was 15^a in series [1] (2000 ppm, 1 day) and 15 in series [1] (geraniol 2,000 ppm, 1 day). In series [2], the “mosquito and midge control” value is “superior mosquito and midge control was demonstrated without plant phytotoxicity or water toxicology”. For the same compound, in series [3], the solubility in water result is “insoluble in water”. Further, the “concentrations causing phytotoxicity in tomato seedlings” value in the series with tomato seedlings (drench) was ≥ 4,000 ppm. Besides, in the series on tomato seedlings (drench), the “concentrations with no effect on tomato seedlings” value is reported as ≤ 3,000 ppm. For the same compound, the “Extent of phytotoxicity (0-5)” value in the series on tomato seedlings (geraniol 100 ppm), in the series on tomato seedlings (geraniol 200 ppm), in the series on tomato seedlings (geraniol 330 ppm), in the series with tomato seedlings (geraniol 500 ppm), in the series on tomato seedlings (geraniol 1,000 ppm) and in the series on tomato seedlings (geraniol 2,000 ppm) was 0 each time. In addition, the “Extent of phytotoxicity (0-5)” value in the series on tomato seedlings (geraniol 3,000 ppm) turned out to be 0; in the series with tomato seedlings (geraniol 4,000 ppm), 5; in the series on tomato seedlings (geraniol 5,000 ppm), 5; in the series with tomato seedlings (geraniol 10,000 ppm), 5; in the series on tomato seedlings (geraniol 20,000 ppm), 5. In addition, the Phytotoxicity symptom entry with tomato seedlings (geraniol 100 ppm), with tomato seedlings (geraniol 200 ppm), with tomato seedlings (geraniol 330 ppm), in the series with tomato seedlings (geraniol 500 ppm), in the series with tomato seedlings (geraniol 1,000 ppm) and with tomato seedlings (geraniol 2,000 ppm) was “No” throughout. For the same compound, the Phytotoxicity symptom entry with tomato seedlings (geraniol 3,000 ppm) is recorded as “No”; with tomato seedlings (geraniol 4,000 ppm) it was “Withered”; in the series on tomato seedlings (geraniol 5,000 ppm) it was “Withered”; with tomato seedlings (geraniol 10,000 ppm) it was “Withered”; with tomato seedlings (geraniol 20,000 ppm), “Withered”. For the same compound, the nematocidal control result in series [4] is “superior nematocidal control was demonstrated without plant phytotoxicity”.

As to `O=C1CCC[C@@H]2[C@H]3CCC[N+]4([O-])CCC[C@@H](CN12)[C@@H]34` (some centres unmarked) [Oxymatrine, oxymatrine], the insecticidal control result in the series on multiple insects is reported as “superior insecticidal control was demonstrated without plant phytotoxicity”.

For `CC1COC(Cn2cncn2)(c2ccc(Oc3ccc(Cl)cc3)cc2Cl)O1` (centres unmarked) [difenoconazole], the “control of Black Sigatoka” value with Black Sigatoka was “effectively controlled”.

`CON=C(C(=O)OC)c1ccccc1CON=C(C)c1cccc(C(F)(F)F)c1` [trifloxystrobin]: in the series with Black Sigatoka, the “control of Black Sigatoka” value was “effectively controlled”.

For the compound pyrethrin, the “number of killed root-knot nematodes” value in series [1] (2000 ppm, 1 day) amounted to 5; in series [1] (2000 ppm, 2 days), 6; in series [1] (2000 ppm, 3 days), 11.

The values are drawn from patent publication US12568961B2, “Multi-layer true spherical chitosan encapsulation of absolute (essential) oils for use in pesticidal activity” (GroPro Corporation, priority 2023, dated 2026).
